Assay results: patent US20110053984A1, “NOVEL 4-BENZHYDRYLOXY-TETRAALKYL-PIPERIDINE DERIVATIVES AND THEIR USE AS MONOAMINE NEUROTRANSMITTER RE-UPTAKE INHIBITORS” (NeuroSearch A/S, priority 2008, published 2011)
Where a name gives a salt, the structure may show the parent alone.

How the values were obtained:
[1] = molecular target: T1, serotonine (5-HT) reuptake in synaptosomes (Rattus norvegicus, UniProt P31652); experiment: Inhibition of 5-HT reuptake in synaptosomes; assay type: biochemical; settings: 3H-5-HT, read-out: 5-HT-uptake IC50
T1 construct: in synaptosomes as described in WO 97/16451; from tissue
T1 sequence (P31652 whole entry): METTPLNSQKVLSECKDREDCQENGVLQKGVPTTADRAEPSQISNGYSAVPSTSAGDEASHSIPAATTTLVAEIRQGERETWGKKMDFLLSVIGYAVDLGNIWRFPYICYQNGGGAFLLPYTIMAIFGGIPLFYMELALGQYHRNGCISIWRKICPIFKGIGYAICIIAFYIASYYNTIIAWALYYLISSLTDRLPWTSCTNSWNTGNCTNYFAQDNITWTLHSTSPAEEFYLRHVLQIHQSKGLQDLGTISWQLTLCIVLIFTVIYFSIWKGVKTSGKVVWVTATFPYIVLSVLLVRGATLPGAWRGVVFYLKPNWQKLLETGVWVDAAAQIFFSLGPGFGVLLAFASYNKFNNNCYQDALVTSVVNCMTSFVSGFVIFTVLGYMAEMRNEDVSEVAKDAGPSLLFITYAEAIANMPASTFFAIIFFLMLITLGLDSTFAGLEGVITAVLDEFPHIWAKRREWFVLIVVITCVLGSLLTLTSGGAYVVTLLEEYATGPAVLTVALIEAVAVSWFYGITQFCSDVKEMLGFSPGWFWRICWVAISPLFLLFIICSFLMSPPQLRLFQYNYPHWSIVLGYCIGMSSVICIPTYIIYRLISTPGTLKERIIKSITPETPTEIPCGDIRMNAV
Procedure: (§1) Compounds were tested for their ability to inhibit the reuptake of the monoamine neurotransmitters dopamine (DA) noradrenaline (NA) and serotonine (5-HT) in synaptosomes as described in WO 97/16451 (NeuroSearch A/S).
(§2) The test values are given as IC50 (the concentration (μM) of the test substance which inhibits the specific binding of ^3H-DA, ^3H-NA, or ^3H-5-HT by 50%).

[2] = molecular target: T2, dopamine (DA) reuptake in synaptosomes (Rattus norvegicus, UniProt P23977); experiment: Inhibition of DA reuptake in synaptosomes; assay type: biochemical; settings: 3H-DA, read-out: DA-uptake IC50
T2 construct: in synaptosomes as described in WO 97/16451; from tissue
T2 sequence (P23977 whole entry): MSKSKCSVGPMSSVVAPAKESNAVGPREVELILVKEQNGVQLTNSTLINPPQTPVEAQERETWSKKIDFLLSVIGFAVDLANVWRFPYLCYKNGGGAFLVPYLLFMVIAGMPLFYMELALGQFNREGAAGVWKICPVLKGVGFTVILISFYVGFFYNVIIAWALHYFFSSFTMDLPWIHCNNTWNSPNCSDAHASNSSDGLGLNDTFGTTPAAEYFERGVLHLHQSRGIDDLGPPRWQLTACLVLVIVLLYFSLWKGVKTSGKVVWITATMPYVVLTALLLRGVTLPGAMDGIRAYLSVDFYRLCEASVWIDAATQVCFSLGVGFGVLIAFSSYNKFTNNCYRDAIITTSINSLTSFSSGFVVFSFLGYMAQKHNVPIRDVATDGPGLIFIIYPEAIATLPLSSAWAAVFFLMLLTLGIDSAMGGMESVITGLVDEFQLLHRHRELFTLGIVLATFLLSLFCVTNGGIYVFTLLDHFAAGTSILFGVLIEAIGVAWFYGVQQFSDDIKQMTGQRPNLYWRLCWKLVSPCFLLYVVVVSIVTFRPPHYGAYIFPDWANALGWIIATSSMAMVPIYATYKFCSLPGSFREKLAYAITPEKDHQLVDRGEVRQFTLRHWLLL
Procedure: as §1, §2

[3] = molecular target: T3, noradrenaline (NA) reuptake in synaptosomes (Rattus norvegicus, UniProt Q63380); experiment: Inhibition of NA reuptake in synaptosomes; assay type: biochemical; settings: 3H-NA, read-out: NA-uptake IC50
T3 construct: in synaptosomes as described in WO 97/16451; from tissue
T3 sequence (Q63380 1-617): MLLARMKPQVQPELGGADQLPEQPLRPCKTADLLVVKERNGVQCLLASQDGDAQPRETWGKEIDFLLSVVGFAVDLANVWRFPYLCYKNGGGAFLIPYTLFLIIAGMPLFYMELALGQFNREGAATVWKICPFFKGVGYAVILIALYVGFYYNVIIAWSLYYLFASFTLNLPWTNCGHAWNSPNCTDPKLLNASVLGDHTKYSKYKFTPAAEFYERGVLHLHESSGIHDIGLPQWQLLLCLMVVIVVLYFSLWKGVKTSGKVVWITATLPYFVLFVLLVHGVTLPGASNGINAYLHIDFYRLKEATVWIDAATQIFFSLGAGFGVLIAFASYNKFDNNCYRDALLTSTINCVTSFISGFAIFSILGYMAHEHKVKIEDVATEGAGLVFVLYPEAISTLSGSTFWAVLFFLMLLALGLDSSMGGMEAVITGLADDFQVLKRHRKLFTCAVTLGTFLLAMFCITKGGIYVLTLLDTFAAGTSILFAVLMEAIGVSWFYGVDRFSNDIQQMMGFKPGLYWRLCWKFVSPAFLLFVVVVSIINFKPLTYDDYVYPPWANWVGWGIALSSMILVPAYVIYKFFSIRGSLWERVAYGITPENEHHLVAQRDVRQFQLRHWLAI
Procedure: as §1, §2

Structure (SMILES) | IC50 [1] [nM] | IC50 [2] [nM] | IC50 [3] [nM] | melting point [°C]
CC1(C)CC(OC(c2ccc(F)cc2)c2ccc(F)cc2)CC(C)(C)N1 [4-[Bis-(4-fluoro-phenyl)-methoxy]-2,2,6,6-tetramethyl-piperidine] | > 1000 | 38 | 590 | –
CC1(C)CC(OC(c2ccccc2)c2ccccc2)CC(C)(C)N1 (as salt: hydrochloric acid salt) [4-Benzhydryloxy-2,2,6,6-tetramethyl-piperidine] | – | – | – | 184.1 to 185.9
CC1(C)CC(OC(c2ccccc2)c2ccccc2)CC(C)(C)N1 [4-Benzhydryloxy-2,2,6,6-tetramethyl-piperidine] | 26000 | 400 | 60 | –
CC1(C)CC(OC(c2ccc(F)cc2)c2ccc(F)cc2)CC(C)(C)N1 (as salt: hydrochloric acid salt) [4-[Bis-(4-fluoro-phenyl)-methoxy]-2,2,6,6-tetramethyl-piperidine] | – | – | – | 242 to 265
